# System: endogenous PS1 NTF
# Experiment: UBQLN overexpression in wild-type HEK293 cells, endogenous PS1 NTF immunoblot
# Type: cell-based
# Conditions: normal HEK293 cells
# Experimental: (C) Endogenous PS fragment levels were analyzed in HEK293 cells that were transfected with increasing amounts of UBQLN1 or UBQLN2 expression plasmids. Equivalent amounts of protein lysates were separated by 10% SDS-PAGE and immunoblotted with anti-PS1 NTF antibody. The filter was then reprobed with anti-ubiquilin antibody to ensure overexpression of UBQLN and with an anti-actin antibody to ensure equal protein loading. Overexpression of UBQLN decreases PS1 NTF levels and the extent of reduction was quantified again by densitometric analysis. Graph is quantification of untransfected and […] UBQLN cDNA plasmid transfected lanes.
# Preparation of protein lysates, SDS-PAGE and immunoblotting of proteins were described previously. Primary antibodies used were rabbit anti-PS2 loop and rabbit anti-PS2 NH,-terminus, both raised to GST-PS2 fusion proteins; rabbit anti-ubiquilin [43] which reacts with UBQLN1 and UBQLN2 polypeptides; rat anti-PS1 NH2,-terminus (Chemicon International, Temecula, Calif.); rabbit anti-PS1 loop raised to GST-PS1 fusion proteins; goat anti-p27 and goat anti-actin (Santa Cruz Biotechnology, Santa Cruz, Calif.); mouse monoclonal anti-tubulin (Sigma-Aldrich, St. Louis, Mo.); rabbit anti-nicastrin (Abeam, Cambridge, Mass.), rabbit anti-Pen-2 (Zymed, San Francisco, Calif.); and rabbit anti-Aph-la (Covance, Berkeley, Calif.). […]
substance,measurement,value
"UBQLN1: PS-interacting protein ubiquilin-1, overexpressed in cells from a cDNA expression plasmid",reduction of endogenous PS1 NTF levels,approximately 1.7 fold
